This note sets out measurements from patent US8476301B2, “Pyrrolidin-3-ylacetic acid derivative” (Eisai R&D Management Co., Ltd., priority 2011, dated 2013).

The assay concerns the target T1, CX3CR1 (Homo sapiens, UniProt P49238).
T1 construct: expressed in transfected cells; host or cells: B300 cells
T1 sequence (P49238 1-355): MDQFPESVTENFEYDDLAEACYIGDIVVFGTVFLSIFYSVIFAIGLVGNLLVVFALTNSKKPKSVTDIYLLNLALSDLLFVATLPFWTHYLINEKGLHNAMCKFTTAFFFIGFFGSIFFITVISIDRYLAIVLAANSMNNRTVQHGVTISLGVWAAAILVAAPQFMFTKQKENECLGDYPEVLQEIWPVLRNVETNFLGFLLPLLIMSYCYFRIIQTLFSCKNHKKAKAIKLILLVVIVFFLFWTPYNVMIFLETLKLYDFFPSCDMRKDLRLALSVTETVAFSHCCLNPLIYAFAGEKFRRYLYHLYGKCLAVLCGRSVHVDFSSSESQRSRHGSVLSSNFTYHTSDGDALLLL
The assay is described as follows: Inhibition of cell migration in fractalkine-induced chemotaxis assay. The format is cell-based. The settings on record: CX3CR1-expressing B300 cells preincubated with test compound 30 minutes; fractalkine 0.3 nM in lower wells; Transwell, 3.5 hours at 37° C.; migrated cells counted with CellTiter; read-out: IC50 (nM), 50% inhibitory concentration on fractalkine-induced cell migration. On the procedure: The inhibitory effects of the example compounds on fractalkine-induced cell migration were examined using CX3CR1-transfected B300 cells
After equilibrating the Transwell plate (24-well clusters, pore size: 5 μm, manufactured by Corning Incorporated), a fractalkine solution (0.3 nM, manufactured by R&D Systems, Inc.) was added to the lower wells. CX3CR1-expressing B300 cells which were preincubated with the test compound (0.001, 0.003, 0.01 or 0.03 μM) for 30 minutes were placed in the upper layer wells, followed by incubation under the condition of 5% CO2 for 3.5 hours at 37° C. The number of cells migrated to the lower wells was evaluated using CellTiter (manufactured by Promega Corporation).
The inhibitory rate of the test compound on fractalkine-induced cell migration was calculated by the following formula, where [A] is the number of migrated cells in the presence of both fractalkine and the test compound, [B] is the number of migrated cells in the presence of fractalkine and in the absence of the test compound, and [C] is the number of migrated cells in the absence of both fractalkine and the test compound; the 50% inhibitory concentration (IC50) was calculated based on the inhibitory rate. Inhibitory rate (%)=[1−{(A−C)/(B−C)}]×100 (2) Results
Turning to `C[C@H]1CN(Cc2c(Cl)cccc2Cl)C[C@@]1(CC(=O)O)C(=O)N[C@H]1CCN(CC2=CCCCC2)C1` (relative stereo) [Example 9], the IC50 stood at 16 nM.
Regarding `Cc1cccc(Cl)c1CN1C[C@H](C)[C@](CC(=O)O)(C(=O)NC2CCN(CC3=CCCC3)CC2)C1` [Example 8, 2-[(3S,4R)-1-[(2-Chloro-6-methylphenyl)methyl]-3-{[(1-cyclopent-1-en-1-ylmethyl)piperidin-4-yl]carbamoyl}-4-methylpyrrolidin-3-yl]acetic acid], the IC50 worked out at 31 nM.
Under `C[C@H]1CN(Cc2c(Cl)cccc2Cl)C[C@@]1(CC(=O)O)C(=O)NC1CCN(CC2=CCCCC2)CC1` [Example 11, 2-[(3S,4R)-3-{[(1-Cyclohex-1-en-1-ylmethyl)piperidin-4-yl]carbamoyl}-1-[(2,6-dichlorophenyl)methyl]-4-methylpyrrolidin-3-yl]acetic acid] stands 6 nM.
